Here are results for three compounds from ChEMBL document CHEMBL4840359, “N-Terminus to Arginine Side-Chain Cyclization of Linear Peptidic Neuropeptide Y Y4 Receptor Ligands Results in Picomolar Binding Constants” (J Med Chem, 2021).

A value given as a limit tells only on which side of the number the result lay.

The target of data set [1] is T1, Neuropeptide Y receptor type 4 (Homo sapiens, UniProt P50391). Briefly: Displacement of [3H]UR-KK200 from human neuropeptide Y Y4 receptor expressed in CHO-mtAEQ cells co-expressing Gqi5 measured after 90 mins by scintillation counting analysis. The data set is classed as cell-based. Background: Loss of bound radioactivity is the signal in a displacement assay; it reports binding, not function.
T1 sequence (P50391 whole entry): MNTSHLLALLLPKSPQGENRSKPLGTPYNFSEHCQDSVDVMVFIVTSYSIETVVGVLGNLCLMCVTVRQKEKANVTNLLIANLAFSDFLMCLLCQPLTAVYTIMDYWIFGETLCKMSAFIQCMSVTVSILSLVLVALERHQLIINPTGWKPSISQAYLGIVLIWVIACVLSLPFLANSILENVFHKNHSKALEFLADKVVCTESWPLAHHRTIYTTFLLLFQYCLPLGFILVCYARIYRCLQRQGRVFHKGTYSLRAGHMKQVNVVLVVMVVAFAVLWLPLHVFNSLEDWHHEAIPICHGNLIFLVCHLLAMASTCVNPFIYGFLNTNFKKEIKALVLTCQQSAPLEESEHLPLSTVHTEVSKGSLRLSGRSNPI

Data set [2] has as its target T1, Neuropeptide Y receptor type 4. Briefly: Displacement of [3H]UR-KK200 from human neuropeptide Y Y4 receptor expressed in CHO-mtAEQ cells co-expressing Gqi5 assessed as fold change in affinity measured after 90 mins by scintillation counting analysis relative to Ac-Arg-Tyr-Arg-Leu-Arg-Tyr-NH2. Type of data set: cell-based. To be noted: filed as agonist.
The target in data set [3] is T2, Neuropeptide Y receptor type 1 (Homo sapiens, UniProt P25929).
T2 sequence (P25929 whole entry): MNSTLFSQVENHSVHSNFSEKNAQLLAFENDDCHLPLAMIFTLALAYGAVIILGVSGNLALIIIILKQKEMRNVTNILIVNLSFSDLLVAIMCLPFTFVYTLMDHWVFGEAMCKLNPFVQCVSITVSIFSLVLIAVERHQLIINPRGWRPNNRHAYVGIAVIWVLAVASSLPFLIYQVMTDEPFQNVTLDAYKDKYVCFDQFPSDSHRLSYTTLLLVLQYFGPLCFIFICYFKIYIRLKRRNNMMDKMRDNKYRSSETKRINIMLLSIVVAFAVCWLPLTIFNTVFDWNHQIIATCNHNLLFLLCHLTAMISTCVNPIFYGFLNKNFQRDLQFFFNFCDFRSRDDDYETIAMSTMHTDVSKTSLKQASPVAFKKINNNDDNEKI
Briefly: Displacement of [3H]UR-MK299 from human neuropeptide Y Y1 receptor in human SK-N-MC cells measured after 90 mins by scintillation counting analysis. Type of data set: cell-based.

Data set [4] addresses T3, Neuropeptide Y receptor type 2 (Homo sapiens, UniProt P49146).
T3 sequence (P49146 whole entry): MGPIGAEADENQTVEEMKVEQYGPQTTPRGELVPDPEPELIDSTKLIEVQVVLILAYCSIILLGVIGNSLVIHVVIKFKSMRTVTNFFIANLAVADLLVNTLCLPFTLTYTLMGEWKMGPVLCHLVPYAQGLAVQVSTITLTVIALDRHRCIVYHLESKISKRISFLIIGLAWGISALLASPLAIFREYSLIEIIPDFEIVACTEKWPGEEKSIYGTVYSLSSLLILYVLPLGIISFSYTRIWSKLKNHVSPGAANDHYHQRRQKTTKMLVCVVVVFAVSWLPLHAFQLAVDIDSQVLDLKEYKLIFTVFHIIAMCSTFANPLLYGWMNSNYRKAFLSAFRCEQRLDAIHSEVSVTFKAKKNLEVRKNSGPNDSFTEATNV
Briefly: Displacement of [3H]UR-MK299 from human neuropeptide Y Y2 receptor expressed in CHO cells measured after 90 mins by scintillation counting analysis. The data set is classed as cell-based.

Data set [5] concerns the target T4, Neuropeptide Y receptor type 5 (Homo sapiens, UniProt Q15761).
T4 sequence (Q15761 whole entry): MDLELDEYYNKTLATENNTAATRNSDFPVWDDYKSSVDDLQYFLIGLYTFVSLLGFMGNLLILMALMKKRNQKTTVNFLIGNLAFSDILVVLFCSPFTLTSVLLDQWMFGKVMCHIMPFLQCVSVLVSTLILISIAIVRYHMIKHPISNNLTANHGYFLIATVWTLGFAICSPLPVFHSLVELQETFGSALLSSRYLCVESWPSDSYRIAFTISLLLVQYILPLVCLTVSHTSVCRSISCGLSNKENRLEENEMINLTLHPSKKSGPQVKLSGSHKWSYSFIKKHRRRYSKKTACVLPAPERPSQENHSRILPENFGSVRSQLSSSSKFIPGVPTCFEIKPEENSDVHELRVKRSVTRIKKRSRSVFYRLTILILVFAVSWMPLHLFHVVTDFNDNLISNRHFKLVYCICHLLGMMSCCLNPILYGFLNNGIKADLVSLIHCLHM
Briefly: Displacement of [3H]propionyl-pNPY from human neuropeptide Y Y5 receptor in human HEC-1B cells measured after 90 mins by scintillation counting analysis. The following applies: read-out: pKi (converted). The data set is classed as cell-based, HEC-1B cell line.

Data set [6] is filed under the species Homo sapiens. Briefly: Selectivity ratio, Ki for displacement of [3H]UR-MK299 from human neuropeptide Y Y1 receptor in human SK-N-MC cells measured after 90 mins by scintillation counting analysis to Ki for displacement of [3H]UR-KK200 from human neuropeptide Y Y4 receptor expressed in CHO-mtAEQ cells co-expressing Gqi5 measured after 90 mins by scintillation counting analysis. The data set is classed as cell-based.

For data set [7], the species on record is Homo sapiens. Briefly: Selectivity ratio, Ki for displacement of [3H]UR-MK299 from human neuropeptide Y Y2 receptor expressed in CHO cells measured after 90 mins by scintillation counting analysis to Ki for displacement of [3H]UR-KK200 from human neuropeptide Y Y4 receptor expressed in CHO-mtAEQ cells co-expressing Gqi5 measured after 90 mins by scintillation counting analysis. Type of data set: cell-based.

For data set [8], the species on record is Homo sapiens. Briefly: Selectivity ratio, Ki for displacement of [3H]propionyl-pNPY from human neuropeptide Y Y5 receptor in human HEC-1B cells measured after 90 mins by scintillation counting analysis to Ki for displacement of [3H]UR-KK200 from human neuropeptide Y Y4 receptor expressed in CHO-mtAEQ cells co-expressing Gqi5 measured after 90 mins by scintillation counting analysis. Type of data set: cell-based.

The target in data set [9] is T1, Neuropeptide Y receptor type 4. Briefly: Agonist activity at human neuropeptide Y Y4 receptor expressed in HEK293T-ARRB1 cells assessed as stimulation of beta-arrestin 1 recruitment by multimode plate reader. Type of data set: functional, cell-based. The following applies: read-out: EC50.
For data set [10] the target is unchanged. Briefly: Intrinsic activity at human neuropeptide Y Y4 receptor expressed in HEK293T-ARRB1 cells assessed as stimulation of beta-arrestin 1 recruitment by multimode plate reader relative to hPP. The data set is classed as functional, cell-based. (Arrestin recruitment assays detect the binding of arrestin to an activated receptor.)
For data set [11] the target is unchanged. Briefly: Agonist activity at human neuropeptide Y Y4 receptor expressed in HEK293T-ARRB2 cells assessed as stimulation of beta-arrestin 2 recruitment by multimode plate reader. The data set is classed as functional, cell-based.
Data set [12] shares this target. Briefly: Intrinsic activity at human neuropeptide Y Y4 receptor expressed in HEK293T-ARRB2 cells assessed as stimulation of beta-arrestin 2 recruitment by multimode plate reader relative to hPP. The data set is classed as functional, cell-based.
The target is the same in data set [13]. Briefly: Agonist activity at human neuropeptide Y Y4 receptor expressed in CHO-mtAEQ cells co-expressing Gqi5 by calcium aequorin assay. The data set is classed as functional, cell-based.
For data set [14] the target is unchanged. Briefly: Intrinsic activity at human neuropeptide Y Y4 receptor expressed in CHO-mtAEQ cells co-expressing Gqi5 by calcium aequorin assay. Type of data set: functional, cell-based.
The target is the same in data set [15]. Briefly: Agonist activity at human neuropeptide Y Y4 receptor expressed in HEK293T cells co-expressing CRE-controlled gene reporter firefly luciferase assessed as relative luminescence measured after 15 mins. The data set is classed as functional, cell-based.
Data set [16] has the same target. Briefly: Intrinsic activity at human neuropeptide Y Y4 receptor expressed in HEK293T cells co-expressing CRE-controlled gene reporter firefly luciferase assessed as relative luminescence measured after 15 mins relative to hPP. Type of data set: functional, cell-based.
The nature of data set [17]: Stability in human plasma assessed as intact peptide measured after 30 mins at 37 degC by RP-HPLC analysis. Type of data set: ADME, cell-free. To be noted: read-out: Stability.
Data set [18] can be described thus: Stability in human plasma assessed as intact peptide measured after 2 hr at 37 degC by RP-HPLC analysis. To be noted: read-out: Stability. Type of data set: ADME, cell-free.
Data set [19] is described as follows: Stability in human plasma assessed as intact peptide measured after 6 hr at 37 degC by RP-HPLC analysis. The data set is classed as ADME, cell-free. To be noted: read-out: Stability.
Data set [20] can be described thus: Stability in human plasma assessed as intact peptide measured after 24 hrs at 37 degC by RP-HPLC analysis. The data set is classed as ADME, cell-free. The following applies: read-out: Stability.
A short description of data set [21]: Stability in human plasma assessed as half life at 37 degC by RP-HPLC analysis. Type of data set: ADME, cell-free.
A short description of data set [22]: Stability in human plasma assessed as intact peptide in presence of rami-pril measured at 50 uM after 24 hrs at 37 degC by LC-HRMS analysis. The data set is classed as ADME, cell-free.
Data set [23] in a line: Inhibition of ACE (unknown origin). On the set-up: species or system Homo sapiens.

One may read the EC50 as the concentration at which the effect is half-maximal. As a reminder, the half-life is the time needed for the level to fall by half in the phase considered. In the case of `CC(C)C[C@H](NC(=O)[C@H](CCCNC(=N)NC(=O)NCCCCN)NC(=O)[C@H](Cc1ccc(O)cc1)NC(=O)[C@H](CCCNC(=N)N)NC(=O)CCC(=O)O)C(=O)N[C@@H](CCCNC(=N)N)C(=O)N[C@@H](Cc1ccc(O)cc1)C(N)=O`, the Ki in data set [1] (read-out: Ki) was 13 nM; in data set [1] (read-out: pKi (converted)), 1.26 nM; in data set [3] (read-out: pKi (converted)), > 10000 nM; in data set [3] (sk-n-mc, read-out: Ki), > 10000 nM; in data set [4] (read-out: Ki), > 10000 nM; in [4] (read-out: pKi (converted)) it was > 10000 nM. Further, in data set [5], the Ki is > 10000 nM. Besides, in data set [2], the fold change (FC) amounted to 2.6. Also, the Selectivity ratio in the data set filed under Homo sapiens [6], in the data set listed under Homo sapiens [7] and in the data set listed under Homo sapiens [8] was > 7600 in each case. For the same compound, the EC50 in data set [9] is 160 nM; in [11], 141 nM; in data set [13], 204 nM; in data set [15] it was 17 nM. Moreover, the Intrinsic activity in data set [10] was found to be 75%; in data set [12], 83%; in data set [14], 70%; in data set [16], 88%. Further, in data set [17], the remaining at 0.5 h was > 99%. In addition, the remaining at 2 h in data set [18] turned out to be 91%. For the same compound, the remaining at 6 h in data set [19] worked out at 49%. Besides, the remaining at 24 h in data set [20] is 3%. In data set [21], the half-life is 5.9 h. For the same compound, the Stability result in [22] is recorded as “Stable”.
Regarding `CC(C)C[C@H](NC(=O)[C@H](CCCNC(=N)NC(=O)NCCCCN)NC(=O)[C@H](Cc1c[nH]c2ccccc12)NC(=O)[C@H](CCCNC(=N)N)NC(=O)CCC(=O)O)C(=O)N[C@@H](CCCNC(=N)N)C(=O)N[C@@H](Cc1ccc(O)cc1)C(N)=O`, the Ki is 2.1 nM in [1] (read-out: Ki); 1.95 nM in [1] (read-out: pKi (converted)); > 10000 nM in data set [3] (read-out: pKi (converted)); > 10000 nM in data set [3] (sk-n-mc, read-out: Ki); > 3000 nM in data set [4] (read-out: Ki); > 3160 nM in data set [4] (read-out: pKi (converted)). The Ki in [5] is > 10000 nM. Further, the fold change (FC) in [2] is 1.6. The Selectivity ratio in the data set listed under Homo sapiens [6] was > 4700; in the data set filed under Homo sapiens [7], > 1400; in the data set listed under Homo sapiens [8], > 4700. The EC50 was 120 nM in [9], 162 nM in data set [11], 105 nM in [13] and 12 nM in data set [15]. In addition, the Intrinsic activity stood at 67% in data set [10], 76% in data set [12], 67% in [14] and 95% in data set [16]. Also, the remaining at 0.5 h in data set [17] amounted to 94%. Besides, in data set [18], the remaining at 2 h stood at 87%. Further, the remaining at 6 h in [19] was 67%. Also, the remaining at 24 h in data set [20] was determined as 3%. The half-life in [21] was 7.9 h. Besides, the Stability entry in data set [22] was “Stable”.
As usually defined, the pIC50 is the negative decadic logarithm of the IC50, by convention in mol/L. `CCOC(=O)[C@H](CCc1ccccc1)N[C@@H](C)C(=O)N1[C@H](C(=O)O)C[C@@H]2CCC[C@@H]21` displayed a pIC50 in [23] of 7.6.
